In patent US10519133B2, “Vinyl compounds as FGFR and VEGFR inhibitors” (MEDSHINE DISCOVERY INC., priority 2015, dated 2019):

Target: T1, FGFR1 (Homo sapiens, UniProt P11362)
T1 construct: purchased Invitrogen PV4105
Experiment: Z′-LYTE Detection Kinase Assay, in vitro enzymatic activity
Assay type: biochemical
Details: 0.6 nM FGFR1, 2 uM Tyr4 peptide, 10 uM ATP, 60 min 23° C.
Protocol: To measure enzyme activity by Z′-LYTE™ Detection Kinase Assay, and to evaluate the inhibitory effect of the compounds on FGFR1 using IC50 value of the compounds as an indicator. […]
Reaction Buffer: 50 mM Hepes (pH 7.5), 10 mM MgCl2, 1 mM EGTA, 0.01% Brij-35, 1 mM DTT, 2 mM MnCl2 0.6 nM FGFR1, 2 uM Tyr4 peptide and 10 uM ATP in reaction buffer (50 mM Hepes, pH 7.5, 10 mM MgCl2, 0.01% BRIJ-35, 1 mM EGTA, 4 mM MnCl2, 2 mM DTT). a. Diluting the compounds with DMSO to 10 mM, 3-fold dilution, 11 gradients, duplicate wells. b. Diluting the compound by 1:25 into middle plate at Bravo Automatic Liquid Station, then transferring 2.5 ul to the reaction plate to ensure the final DMSO concentration to be 1%. c. Transferring 5 ul of enzyme/substrate buffer into each well d. Using Multidrop Liquid Workstation to sequentially add ATP solution to each well e. Centrifuging at 1000 rpm for 1 minute f. Placing the reaction plate in an incubator at 23° C. to react for 60 min. a. Preparing a 1:128 mixture of Development Regent B and Development Buffer b. Adding 5 ul to each well and centrifuging at 1000 rpm for 1 minute c. Placing the reaction plate in a thermostat (23° C.) after centrifuging for 90 minutes, removing and reading on Envision (Perkin Elmer) Plate Reader
D. Analyzing Data: Analyzing Data Using XLFIT (IDBS) and Calculating IC50 Values for the Compounds.

T1 sequence (P11362 22-822): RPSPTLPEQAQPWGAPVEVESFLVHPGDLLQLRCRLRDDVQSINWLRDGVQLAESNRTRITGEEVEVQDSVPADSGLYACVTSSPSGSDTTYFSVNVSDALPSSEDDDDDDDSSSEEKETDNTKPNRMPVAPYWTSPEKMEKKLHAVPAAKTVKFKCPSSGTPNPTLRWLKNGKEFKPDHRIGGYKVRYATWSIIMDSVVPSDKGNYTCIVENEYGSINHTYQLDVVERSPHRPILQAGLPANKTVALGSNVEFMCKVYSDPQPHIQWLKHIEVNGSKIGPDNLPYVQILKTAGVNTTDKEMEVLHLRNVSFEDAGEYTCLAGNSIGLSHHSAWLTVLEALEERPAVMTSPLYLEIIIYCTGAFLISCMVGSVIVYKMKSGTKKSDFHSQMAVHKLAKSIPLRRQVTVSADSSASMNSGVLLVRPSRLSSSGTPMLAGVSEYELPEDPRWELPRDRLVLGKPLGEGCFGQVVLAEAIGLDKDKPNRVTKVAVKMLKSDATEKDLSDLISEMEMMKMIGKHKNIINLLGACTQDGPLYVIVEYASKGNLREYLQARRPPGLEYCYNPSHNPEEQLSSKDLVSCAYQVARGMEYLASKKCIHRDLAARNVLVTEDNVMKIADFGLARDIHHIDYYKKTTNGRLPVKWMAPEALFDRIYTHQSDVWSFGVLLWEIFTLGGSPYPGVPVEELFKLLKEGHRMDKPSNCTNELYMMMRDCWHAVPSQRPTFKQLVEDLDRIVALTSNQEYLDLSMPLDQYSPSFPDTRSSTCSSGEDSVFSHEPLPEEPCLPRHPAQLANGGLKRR

| Structure (SMILES) | IC50 [µM] |
| --- | --- |
| C[C@@H](Oc1ccc2[nH]nc(/C(F)=C\c3ccc(CN4CCOCC4)nc3)c2c1)c1c(Cl)cncc1Cl [Example 2] | 0.05 to 1 |
| C[C@H](Oc1ccc2[nH]nc(/C(F)=C\c3ccc(CN4CCOCC4)nc3)c2c1)c1c(Cl)cncc1Cl [Example 3] | 0.05 to 1 |
| C[C@@H](Oc1ccc2[nH]nc(/C(F)=C/c3ccc(CN4CCOCC4)nc3)c2c1)c1c(Cl)cncc1Cl [Example 4] | 0.05 to 1 |
| C[C@H](Oc1ccc2[nH]nc(/C(F)=C/c3ccc(CN4CCOCC4)nc3)c2c1)c1c(Cl)cncc1Cl [Example 5] | 0.05 to 1 |
| C[C@H](Oc1ccc2[nH]nc(/C(O)=C/c3ccc(CN4CCOCC4)nc3)c2c1)c1c(Cl)cncc1Cl [Example 6] | 0.05 to 1 |
| CC(Oc1ccc2[nH]nc(/C(F)=C/c3ccc(CN4CCC(CO)CC4)nc3)c2c1)c1c(Cl)cncc1Cl (stereo not drawn) [Example 9] | 0.01 to 0.05 |
| CC(Oc1ccc2[nH]nc(/C(F)=C/c3ccc(CNC4CCOCC4)nc3)c2c1)c1c(Cl)cncc1Cl (stereo not drawn) [Example 10] | 0.01 to 0.05 |
| CC(Oc1ccc2[nH]nc(/C(F)=C/c3ccc(CNCCN4CCOCC4)nc3)c2c1)c1c(Cl)cncc1Cl (stereo not drawn) [Example 11] | 0.05 to 1 |
| CC(Oc1ccc2[nH]nc(/C(F)=C/c3ccc(CN4CCC(O)C4)nc3)c2c1)c1c(Cl)cncc1Cl (stereo not drawn) [Example 12] | 0.01 to 0.05 |
| CC(Oc1ccc2[nH]nc(/C(F)=C/c3ccc(CN4CCOCC4)nn3)c2c1)c1c(Cl)cncc1Cl (stereo not drawn) [Example 13] | 0.05 to 1 |
| CCN(Cc1ccc(/C(F)=C/c2n[nH]c3ccc(O[C@H](C)c4c(Cl)cncc4Cl)cc23)cn1)C1CCOCC1 [Example 18b] | ≤ 0.01 |
| C[C@H](Oc1ccc2[nH]nc(/C=C(\F)c3ccc(CN4CCC(CO)CC4)nc3)c2c1)c1c(Cl)cncc1Cl [Example 22] | 0.01 to 0.05 |
| C[C@H](Oc1ccc2[nH]nc(/C=C(\F)c3ccc(CN4CCC(O)C4)nc3)c2c1)c1c(Cl)cncc1Cl (stereo partly drawn) [Example 23] | ≤ 0.01 |
| C[C@@H](Oc1ccc2[nH]nc(/C=C(\F)c3ccc(CN[C@H]4C[C@H](O)C4)nc3)c2c1)c1c(Cl)cncc1Cl [Example 26] | 0.01 to 0.05 |
| C[C@@H](Oc1ccc2[nH]nc(/C=C(\F)c3ccc(CN4CCN(CCO)CC4)nc3)c2c1)c1c(Cl)cncc1Cl [Example 27] | ≤ 0.01 |
| C[C@@H](Oc1ccc2[nH]nc(/C=C(\F)c3ccc(CN4CCC(O)C4)nc3)c2c1)c1c(Cl)cncc1Cl (stereo partly drawn) [Example 31] | ≤ 0.01 |
| C[C@@H](Oc1ccc2[nH]nc(/C=C(\F)c3ccc(OC4CCOCC4)nc3)c2c1)c1c(Cl)cncc1Cl [Example 36] | 0.05 to 1 |
| C[C@@H](Oc1ccc2[nH]nc(/C=C(\F)c3ccc(O[C@H]4CCOC4)nc3)c2c1)c1c(Cl)cncc1Cl [Example 37] | 0.05 to 1 |
| C[C@@H](Oc1ccc2[nH]nc(/C=C(\F)c3ccc(OC4CCNCC4)nc3)c2c1)c1c(Cl)cncc1Cl [Example 43] | ≤ 0.01 |
| CC(Oc1ccc2[nH]nc(/C=C/c3ccc(CN4CCOCC4)nc3)c2c1)c1c(Cl)cncc1Cl (stereo not drawn) [Example 48] | ≤ 0.01 |
| CC(Oc1ccc2[nH]nc(/C=C/c3cncc(CN4CCOCC4)c3)c2c1)c1c(Cl)cncc1Cl (stereo not drawn) [Example 50] | ≤ 0.01 |

| Structure (SMILES) | IC50 [µM] |
| --- | --- |
| CC(Oc1ccc2[nH]nc(/C=C/c3cnc(CN4CCOCC4)nc3)c2c1)c1c(Cl)cncc1Cl (stereo not drawn) [Example 51] | ≤ 0.01 |
| CC(Oc1ccc2[nH]nc(/C=C/c3ncc(CN4CCOCC4)cn3)c2c1)c1c(Cl)cncc1Cl (stereo not drawn) [Example 52] | 0.05 to 1 |
| CC(Oc1ccc2[nH]nc(/C=C/c3ccc(CN4CCOCC4)cc3Cl)c2c1)c1c(Cl)cncc1Cl (stereo not drawn) [Example 55] | 0.05 to 1 |
| CC(Oc1ccc2[nH]nc(/C=C/c3ccc(CN4CCOCC4)c4ccccc34)c2c1)c1c(Cl)cncc1Cl (stereo not drawn) [Example 56] | 0.05 to 1 |
| Cc1cc(/C=C/c2n[nH]c3ccc(OC(C)c4c(Cl)cncc4Cl)cc23)ccc1CN1CCOCC1 (stereo not drawn) [Example 58] | 0.05 to 1 |
| CC(Oc1ccc2[nH]nc(/C=C/c3ccc(CN4CCOCC4)cc3C#N)c2c1)c1c(Cl)cncc1Cl (stereo not drawn) [Example 60] | 0.05 to 1 |
| CC(Oc1ccc2[nH]nc(/C=C/c3cc(N)c(CN4CCOCC4)cc3F)c2c1)c1c(Cl)cncc1Cl (stereo not drawn) [Example 61] | 0.05 to 1 |
| CC(Oc1ccc2[nH]nc(/C=C/c3ccc(CN4CCOCC4)c(C(F)(F)F)c3)c2c1)c1c(Cl)cncc1Cl (stereo not drawn) [Example 64] | 0.05 to 1 |
| [2H]C([2H])(c1ccc(/C=C/c2n[nH]c3ccc(OC(C)c4c(Cl)cncc4Cl)cc23)nn1)N1CCOCC1 (stereo not drawn) [Example 65] | ≤ 0.01 |
| CC(Oc1ccc2[nH]nc(/C=C/c3ccc(CN4CCOCC4)nn3)c2c1)c1c(Cl)cncc1Cl (stereo not drawn) [Example 66] | ≤ 0.01 |
| C[C@@H](Oc1ccc2[nH]nc(/C=C/c3ccc(CN4CCOCC4)nn3)c2c1)c1c(Cl)cncc1Cl [Example 67] | ≤ 0.01 |
| C[C@@H](Oc1ccc2[nH]nc(/C=C/c3ccc(CNC4CCOCC4)nn3)c2c1)c1c(Cl)cncc1Cl [Example 68] | ≤ 0.01 |
| C[C@@H](Oc1ccc2[nH]nc(/C=C/c3ccc(CN4CCC(O)C4)nn3)c2c1)c1c(Cl)cncc1Cl (stereo partly drawn) [Example 69] | ≤ 0.01 |
| CC(Oc1ccc2[nH]nc(/C=C/c3ccc(N4CCN(C)CC4)nc3)c2c1)c1c(Cl)cncc1Cl (stereo not drawn) [Example 71] | 0.01 to 0.05 |
| CC(Oc1ccc2[nH]nc(/C=C/c3ccc(CN4CCC(O)CC4)cc3)c2c1)c1c(Cl)cncc1Cl (stereo not drawn) [Example 72] | ≤ 0.01 |
| CC(Oc1ccc2[nH]nc(/C=C/c3ccc(CN4CC[C@@H](N(C)C)C4)cc3)c2c1)c1c(Cl)cncc1Cl (stereo partly drawn) [Example 73] | ≤ 0.01 |
| CC(Oc1ccc2[nH]nc(/C=C/c3ccc(CN4CCC(CO)CC4)cc3)c2c1)c1c(Cl)cncc1Cl (stereo not drawn) [Example 74] | ≤ 0.01 |
| CC(Oc1ccc2[nH]nc(/C=C/c3ccc(CNC4CCOCC4)cc3)c2c1)c1c(Cl)cncc1Cl (stereo not drawn) [Example 78] | ≤ 0.01 |
| CC(Oc1ccc2[nH]nc(/C=C/c3ccc(CN4CCc5ccccc5C4)cc3)c2c1)c1c(Cl)cncc1Cl (stereo not drawn) [Example 80] | 0.05 to 1 |
| CC(Oc1ccc2[nH]nc(/C=C/c3ccc(CN4CCCCC4)cc3)c2c1)c1c(Cl)cncc1Cl (stereo not drawn) [Example 81] | ≤ 0.01 |
| CC(Oc1ccc2[nH]nc(/C=C/c3ccc(CN4CCC(c5ccccc5)CC4)cc3)c2c1)c1c(Cl)cncc1Cl (stereo not drawn) [Example 82] | 0.05 to 1 |

| Structure (SMILES) | IC50 [µM] |
| --- | --- |
| CC(Oc1ccc2[nH]nc(/C=C/c3ccc(CN4CCN(c5ccccc5)CC4)cc3)c2c1)c1c(Cl)cncc1Cl (stereo not drawn) [Example 83] | 0.05 to 1 |
| CC(Oc1ccc2[nH]nc(/C=C/c3ccc(CN(CCN(C)C)Cc4ccccc4)cc3)c2c1)c1c(Cl)cncc1Cl (stereo not drawn) [Example 86] | 0.05 to 1 |
| CC(Oc1ccc2[nH]nc(/C=C/c3ccc(CNCc4ccccc4)cc3)c2c1)c1c(Cl)cncc1Cl (stereo not drawn) [Example 87] | 0.05 to 1 |
| CC(Oc1ccc2[nH]nc(/C=C/c3ccc(CN4CCOC(CO)C4)cc3)c2c1)c1c(Cl)cncc1Cl (stereo not drawn) [Example 88] | 0.01 to 0.05 |
| CC(Oc1ccc2[nH]nc(/C=C/c3ccc(CNCCN4CCOCC4)cc3)c2c1)c1c(Cl)cncc1Cl (stereo not drawn) [Example 89] | ≤ 0.01 |
| CC(Oc1ccc2[nH]nc(/C=C/c3ccc(CN4CCC(Cc5ccccc5)CC4)cc3)c2c1)c1c(Cl)cncc1Cl (stereo not drawn) [Example 90] | 0.05 to 1 |
| CCN(Cc1ccccc1)Cc1ccc(/C=C/c2n[nH]c3ccc(OC(C)c4c(Cl)cncc4Cl)cc23)cc1 (stereo not drawn) [Example 91] | 0.05 to 1 |
| CC(Oc1ccc2[nH]nc(/C=C/c3ccc(CN4CCN(C)CC4)cc3)c2c1)c1c(Cl)cncc1Cl (stereo not drawn) [Example 93] | 0.01 to 0.05 |
| CC(Oc1ccc2[nH]nc(/C=C/c3ccc(CN(C)Cc4ccccc4)cc3)c2c1)c1c(Cl)cncc1Cl (stereo not drawn) [Example 94] | 0.05 to 1 |
| CCN(Cc1ccccc1)Cc1ccc(/C=C/c2n[nH]c3ccc(OC(C)c4c(Cl)cncc4Cl)cc23)cc1 (stereo not drawn) [Example 95] | 0.05 to 1 |
| CC1CN(Cc2ccc(/C=C/c3n[nH]c4ccc(OC(C)c5c(Cl)cncc5Cl)cc34)cc2)CCN1 (stereo not drawn) [Example 97] | ≤ 0.01 |
| CC(Oc1ccc2[nH]nc(/C=C/c3ccc(CNc4ccccc4)cc3)c2c1)c1c(Cl)cncc1Cl (stereo not drawn) [Example 99] | 0.05 to 1 |
| CC(Oc1ccc2[nH]nc(/C=C/c3ccc(CN4CCCOCC4)cc3)c2c1)c1c(Cl)cncc1Cl (stereo not drawn) [Example 100] | ≤ 0.01 |
| CC(Oc1ccc2[nH]nc(/C=C/c3ccc(CN4CCCC(CO)C4)cc3)c2c1)c1c(Cl)cncc1Cl (stereo not drawn) [Example 101] | ≤ 0.01 |
| CC(Oc1ccc2[nH]nc(/C=C/c3ccc(CN4CCN(C(C)C)CC4)cc3)c2c1)c1c(Cl)cncc1Cl (stereo not drawn) [Example 102] | ≤ 0.01 |
| CNC(=O)C1CCN(Cc2ccc(/C=C/c3n[nH]c4ccc(OC(C)c5c(Cl)cncc5Cl)cc34)cc2)CC1 (stereo not drawn) [Example 103] | ≤ 0.01 |
| CCN(Cc1ccc(/C=C/c2n[nH]c3ccc(OC(C)c4c(Cl)cncc4Cl)cc23)cc1)C1CCCCC1 (stereo not drawn) [Example 104] | 0.05 to 1 |
| CC(Oc1ccc2[nH]nc(/C=C/c3ccc(CN4CCC(O)C4)cc3)c2c1)c1c(Cl)cncc1Cl (stereo not drawn) [Example 106] | ≤ 0.01 |
| CC(Oc1ccc2[nH]nc(/C=C/c3ccc(CN4CCOC[C@@H]4C)cc3)c2c1)c1c(Cl)cncc1Cl (stereo partly drawn) [Example 107] | 0.05 to 1 |
| CC1CN(Cc2ccc(/C=C/c3n[nH]c4ccc(OC(C)c5c(Cl)cncc5Cl)cc34)cc2)CC(C)O1 (stereo not drawn) [Example 108] | 0.05 to 1 |
| CC(=O)N1CCN(Cc2ccc(/C=C/c3n[nH]c4ccc(OC(C)c5c(Cl)cncc5Cl)cc34)cc2)CC1 (stereo not drawn) [Example 109] | ≤ 0.01 |
